Measured values as given in ChEMBL document CHEMBL1201862, “PubChem BioAssay data set” (2004).
Calls of active or inactive are those of the source.

Experiments:
[1] = target: T1, Nuclear receptor subfamily 0 group B member 1 (Homo sapiens, UniProt P51843); assay: Luminescence-based cell-based high throughput dose response assay for inhibitors of the orphan nuclear receptor subfamily 0, group B, member 1 (DAX1; NR0B1). [Related pubchem assays (depositor defined):AID504766, AID504790]; format: functional
T1 sequence (P51843 whole entry): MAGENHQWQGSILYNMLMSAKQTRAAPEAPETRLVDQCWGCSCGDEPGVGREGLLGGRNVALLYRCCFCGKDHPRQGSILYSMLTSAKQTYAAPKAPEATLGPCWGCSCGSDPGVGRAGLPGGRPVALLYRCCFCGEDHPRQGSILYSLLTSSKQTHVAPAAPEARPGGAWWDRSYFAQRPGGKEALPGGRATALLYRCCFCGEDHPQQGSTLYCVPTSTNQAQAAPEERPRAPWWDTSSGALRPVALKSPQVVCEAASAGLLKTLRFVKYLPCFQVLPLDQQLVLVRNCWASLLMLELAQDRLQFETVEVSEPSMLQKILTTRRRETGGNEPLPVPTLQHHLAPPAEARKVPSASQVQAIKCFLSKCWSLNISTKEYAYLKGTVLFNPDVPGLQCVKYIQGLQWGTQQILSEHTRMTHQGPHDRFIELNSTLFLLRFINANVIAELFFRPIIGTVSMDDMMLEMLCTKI

HEK293 [2] = assay: cells; format: functional, cell-based; details: Homo sapiens
Vero = assay: host cell cytotoxicity of antiviral hits, dose response, cytotoxicity control for West Nile virus antiviral project, secondary assay (AID 1650); format: functional; details: Chlorocebus sabaeus
Streptococcus = assay: Group A Streptococcus viability loss, dose response, counter-screen for streptokinase expression inhibitor project, luminescence, BacTiterGlo (AID 1915); format: functional, organism-based;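 note: potency for reduction of bacterial viability or growth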
[3] = target: T2, ATP-dependent translocase ABCB1 (Homo sapiens, UniProt P08183); assay: ABCG2 efflux pump inhibitor potency, dose response, Ig-MXP3 cells, JC-1, flow cytometry, set 2 (AID 504566); format: functional; details: read-out: EC50_MICROM_;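 note: flow cytometry median green fluorescence of retained JC-1 dye; potency of efflux pump inhibition measured as rising substrate retention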
[4] = test system: Streptococcus sp. 'group A'; assay: growth inhibition of control SK(-) GAS strain, dose response, counter-screen for streptokinase expression inhibitor project, luminescence, kanamycin, BacTiterGlo, confirmation (AID 1900); format: functional, organism-based
[5] = target: T2, ATP-dependent translocase ABCB1; assay: ABCB1 efflux inhibitor potency, dose response, Jurkat-DNR cells, JC-1, flow cytometry, set 2 (AID 504569); format: functional; details: read-out: EC50_MICROM_;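 note: potency of pump inhibitors that raise cellular JC-1 green fluorescence up to the nicardipine level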
Streptokinase A = target: T3, Streptokinase A (Streptococcus pyogenes serotype M1, UniProt P10520); assay: S. pyogenes streptokinase expression inhibitors, potency, dose response, plasminogen activation absorbance, OD405 (AID 1914); format: functional, Streptococcus pyogenes M1 GAS;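 note: secreted streptokinase activity via plasminogen activation per viability signal from cell pellet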
T3 sequence (P10520 whole entry): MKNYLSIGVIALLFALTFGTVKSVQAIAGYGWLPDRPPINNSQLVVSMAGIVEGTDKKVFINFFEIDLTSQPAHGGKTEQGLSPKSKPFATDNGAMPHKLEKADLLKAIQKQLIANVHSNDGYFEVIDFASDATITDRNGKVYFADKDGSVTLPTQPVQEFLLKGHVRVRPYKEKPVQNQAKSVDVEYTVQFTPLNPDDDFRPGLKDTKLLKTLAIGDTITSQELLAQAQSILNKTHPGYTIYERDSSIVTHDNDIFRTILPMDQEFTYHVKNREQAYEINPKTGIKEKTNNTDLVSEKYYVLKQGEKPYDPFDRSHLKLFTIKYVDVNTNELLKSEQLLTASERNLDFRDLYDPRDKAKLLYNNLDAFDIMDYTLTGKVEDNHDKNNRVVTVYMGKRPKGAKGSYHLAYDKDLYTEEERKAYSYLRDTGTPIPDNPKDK

[6] = target: T4, Low molecular weight phosphotyrosine protein phosphatase (Homo sapiens, UniProt P24666); format: functional; details: read-out: IC50_Mean
T4 sequence (P24666 whole entry): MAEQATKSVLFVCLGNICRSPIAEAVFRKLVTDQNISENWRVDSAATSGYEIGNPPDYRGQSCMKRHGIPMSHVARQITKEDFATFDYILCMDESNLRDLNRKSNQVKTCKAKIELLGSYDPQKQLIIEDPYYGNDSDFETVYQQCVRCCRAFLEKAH

[7] = target: T4, Low molecular weight phosphotyrosine protein phosphatase; format: functional; details: read-out: IC50_Mean; remark: listed apart in the source
[8] = LGR2 antagonists, dose response, cell-based, HEK293, CRE-luciferase reporter, cherry pick, set 2 (AID 743343); format: functional;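 note: transfected cells were stimulated with diluted bursicon conditioned medium after compound addition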
[9] = HepG2 cell cytotoxicity, dose response, cytotoxicity control, plate reader, cherry-pick, antagonist series (AID 743416); format: functional, cell-based
[10] = microbe, parasite or virus in culture; format: functional; details: Mycobacterium tuberculosis
[11] = A549 cell cytotoxicity, dose response, cytotoxicity control, plate reader, cherry-pick, antagonist series (AID 743412); format: functional, cell-based
[12] = target: T5, Microphthalmia-associated transcription factor (Homo sapiens, UniProt O75030); assay: TRPM1 promoter luciferase signal decrease, dose response, MITF inhibitor project, cell-based, SK-MEL-5, cherry-picked, set 3 (AID 493073); format: functional
T5 sequence (O75030 whole entry): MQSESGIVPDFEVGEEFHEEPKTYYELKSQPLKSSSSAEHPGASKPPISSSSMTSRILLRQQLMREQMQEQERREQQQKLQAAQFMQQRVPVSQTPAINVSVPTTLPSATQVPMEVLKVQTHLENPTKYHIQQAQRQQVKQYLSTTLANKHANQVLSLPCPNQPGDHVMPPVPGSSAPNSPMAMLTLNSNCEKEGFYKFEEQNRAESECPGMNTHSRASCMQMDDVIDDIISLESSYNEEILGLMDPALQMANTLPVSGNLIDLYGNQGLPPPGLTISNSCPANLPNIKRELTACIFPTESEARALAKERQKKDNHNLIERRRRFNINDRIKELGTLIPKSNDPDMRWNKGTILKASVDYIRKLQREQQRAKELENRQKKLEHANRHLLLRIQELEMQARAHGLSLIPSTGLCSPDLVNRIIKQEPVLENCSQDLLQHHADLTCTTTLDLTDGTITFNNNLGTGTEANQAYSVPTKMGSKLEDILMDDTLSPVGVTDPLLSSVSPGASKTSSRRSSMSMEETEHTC

HEK293 [13] = assay: cells; format: functional, cell-based; details: Homo sapiens; remark: listed apart in the source
[14] = HEK293 cell cytotoxicity, dose response, cytotoxicity control, plate reader, cherry-picked samples (AID 743446); format: functional, cell-based
[15] = MC4R antagonists, dose response, counter-screen for LGR2 antagonist project, cell-based, plate reader, cherry pick (AID 743444); format: functional;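 note: transfected HEK 293 cells stimulated with alpha-MSH peptide; potency of inhibitors of the alpha-MSH evoked signal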
Protein RecA = target: T6, Protein RecA (Mycobacterium tuberculosis, UniProt P9WHJ3); assay: Fluorescence Cell-Free Homogeneous Dose Retest to Identify Inhibitors of RecA-Intein Splicing Activity. [Related pubchem assays (depositor defined):AID2097, AID2223, AID489010, AID492950]; format: functional
T6 sequence (P9WHJ3 whole entry): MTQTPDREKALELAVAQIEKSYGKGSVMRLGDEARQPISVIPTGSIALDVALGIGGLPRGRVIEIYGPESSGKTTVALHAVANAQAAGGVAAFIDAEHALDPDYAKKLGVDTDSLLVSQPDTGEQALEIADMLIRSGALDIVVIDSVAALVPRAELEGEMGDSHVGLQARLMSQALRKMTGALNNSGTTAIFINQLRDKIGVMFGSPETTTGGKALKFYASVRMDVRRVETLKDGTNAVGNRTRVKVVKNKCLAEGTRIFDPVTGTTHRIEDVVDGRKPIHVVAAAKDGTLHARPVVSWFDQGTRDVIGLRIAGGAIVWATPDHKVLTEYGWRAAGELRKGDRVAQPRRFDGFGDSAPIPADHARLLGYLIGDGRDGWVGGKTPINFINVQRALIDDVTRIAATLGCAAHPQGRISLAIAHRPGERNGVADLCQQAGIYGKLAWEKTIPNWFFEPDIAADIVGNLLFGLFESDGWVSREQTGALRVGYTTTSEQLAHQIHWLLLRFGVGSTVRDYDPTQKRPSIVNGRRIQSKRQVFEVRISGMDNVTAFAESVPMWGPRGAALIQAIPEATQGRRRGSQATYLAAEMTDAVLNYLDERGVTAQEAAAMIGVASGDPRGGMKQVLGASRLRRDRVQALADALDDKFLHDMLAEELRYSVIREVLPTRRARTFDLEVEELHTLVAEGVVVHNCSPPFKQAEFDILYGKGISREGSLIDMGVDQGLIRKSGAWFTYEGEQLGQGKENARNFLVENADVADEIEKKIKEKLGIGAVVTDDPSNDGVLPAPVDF

[16] = target: T7, Replicative DNA helicase DnaB (Mycobacterium tuberculosis, UniProt P9WMR3); assay: DnaB intein splicing inhibitors, dose response, biochemical, cell-free fluorescence (AID 449749); format: functional
T7 sequence (P9WMR3 whole entry): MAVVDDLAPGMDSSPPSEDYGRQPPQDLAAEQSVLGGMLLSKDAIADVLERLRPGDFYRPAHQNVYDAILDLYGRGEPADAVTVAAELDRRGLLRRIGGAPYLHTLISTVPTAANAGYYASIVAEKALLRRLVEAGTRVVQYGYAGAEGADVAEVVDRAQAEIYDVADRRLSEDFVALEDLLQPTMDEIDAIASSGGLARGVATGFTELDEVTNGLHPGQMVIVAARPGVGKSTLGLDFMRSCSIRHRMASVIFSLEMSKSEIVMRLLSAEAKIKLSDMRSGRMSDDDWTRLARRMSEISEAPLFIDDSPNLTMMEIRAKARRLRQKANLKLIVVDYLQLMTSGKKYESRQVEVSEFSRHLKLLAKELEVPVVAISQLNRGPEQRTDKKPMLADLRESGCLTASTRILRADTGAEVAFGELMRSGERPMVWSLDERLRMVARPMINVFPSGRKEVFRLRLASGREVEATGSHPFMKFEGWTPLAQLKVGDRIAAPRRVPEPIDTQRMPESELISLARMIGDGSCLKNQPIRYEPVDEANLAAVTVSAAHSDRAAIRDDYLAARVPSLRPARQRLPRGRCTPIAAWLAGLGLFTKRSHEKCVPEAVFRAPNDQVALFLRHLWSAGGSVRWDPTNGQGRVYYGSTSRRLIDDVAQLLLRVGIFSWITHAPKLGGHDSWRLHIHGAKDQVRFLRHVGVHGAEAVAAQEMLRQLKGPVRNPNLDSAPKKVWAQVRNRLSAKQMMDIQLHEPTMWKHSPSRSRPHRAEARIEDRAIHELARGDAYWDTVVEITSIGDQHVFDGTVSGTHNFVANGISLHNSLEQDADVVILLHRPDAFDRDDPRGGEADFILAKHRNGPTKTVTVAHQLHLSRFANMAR

HEK293 [17] = assay: cells; format: functional, cell-based; details: Homo sapiens; remark: listed apart in the source
cells = format: functional
HEK293 [18] = assay: NOD2 signaling inhibitors in MDP-stimulated cells, cell-based, uHTS, luminescence (AID 2001); format: functional; details: Homo sapiens
HEK293 [19] = assay: NOD1 signaling inhibitors, primary screen, cell-based, luminescence, uHTS (AID 1578); format: functional; details: Homo sapiens
[20] = THP-1 cell cytotoxicity, dose response, cytotoxicity control for non-replicating M. tuberculosis project (AID 489025); format: functional

T2 sequence (P08183 whole entry): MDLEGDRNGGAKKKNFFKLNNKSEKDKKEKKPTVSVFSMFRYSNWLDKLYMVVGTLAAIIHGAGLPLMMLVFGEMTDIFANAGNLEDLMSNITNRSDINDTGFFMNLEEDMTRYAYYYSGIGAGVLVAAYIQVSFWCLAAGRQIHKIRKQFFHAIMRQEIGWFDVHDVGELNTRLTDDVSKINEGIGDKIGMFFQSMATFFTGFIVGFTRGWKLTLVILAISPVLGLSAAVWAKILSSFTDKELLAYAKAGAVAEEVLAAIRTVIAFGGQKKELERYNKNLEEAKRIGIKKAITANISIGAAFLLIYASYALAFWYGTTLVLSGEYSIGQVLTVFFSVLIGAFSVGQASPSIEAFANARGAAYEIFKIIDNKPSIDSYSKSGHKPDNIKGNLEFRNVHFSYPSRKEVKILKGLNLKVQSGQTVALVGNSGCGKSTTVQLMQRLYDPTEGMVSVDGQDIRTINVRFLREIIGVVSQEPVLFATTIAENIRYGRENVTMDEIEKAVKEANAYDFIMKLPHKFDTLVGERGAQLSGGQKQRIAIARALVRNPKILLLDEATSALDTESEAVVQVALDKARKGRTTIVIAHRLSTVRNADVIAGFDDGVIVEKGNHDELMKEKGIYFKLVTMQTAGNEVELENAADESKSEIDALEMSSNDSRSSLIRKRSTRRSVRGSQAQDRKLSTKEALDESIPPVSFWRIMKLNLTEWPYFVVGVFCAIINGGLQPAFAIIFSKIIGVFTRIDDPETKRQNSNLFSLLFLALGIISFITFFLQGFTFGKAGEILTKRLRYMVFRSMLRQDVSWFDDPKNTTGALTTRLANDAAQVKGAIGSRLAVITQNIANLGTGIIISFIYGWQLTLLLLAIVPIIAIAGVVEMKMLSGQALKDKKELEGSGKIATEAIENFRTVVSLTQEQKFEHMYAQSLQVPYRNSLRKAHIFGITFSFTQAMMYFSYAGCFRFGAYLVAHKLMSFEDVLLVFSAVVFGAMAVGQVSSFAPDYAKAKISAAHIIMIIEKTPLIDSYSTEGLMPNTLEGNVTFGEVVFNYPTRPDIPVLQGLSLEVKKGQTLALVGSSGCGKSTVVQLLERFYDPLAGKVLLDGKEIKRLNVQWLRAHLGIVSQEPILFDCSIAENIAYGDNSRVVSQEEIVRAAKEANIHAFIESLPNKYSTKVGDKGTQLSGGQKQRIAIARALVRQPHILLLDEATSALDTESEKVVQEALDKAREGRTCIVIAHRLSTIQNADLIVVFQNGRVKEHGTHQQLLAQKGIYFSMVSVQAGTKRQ

COc1ccc(-c2cc(=O)c3ccccc3o2)cc1 [4'-METHOXYFLAVONE]
inactive: IC50 [1] > 67.5 µM | IC50 (HEK293 [2]) > 67.5 µM

Cc1cccnc1NC(=O)C(C)N1C(=O)c2ccccc2C1=O (stereo not drawn)
inactive: IC50 [1] > 67.5 µM | IC50 (HEK293 [2]) > 67.5 µM

Cc1nn2c(N3CCN(C(=O)c4ccco4)CC3)cc(C(C)(C)C)nc2c1-c1ccccc1
active: CC50 (Vero) 42.1 µM | EC50 (Streptococcus) 22.1 µM | EC50 [3] 6.22 µM | EC50 [4] 3.59 µM | EC50 [5] 11.1 µM | EC50 (Streptokinase A) 8.62 µM

CNc1nc2c(-c3ccc(Cl)cc3)nnn2c2ccccc12
active: IC50 [6] 11.1 µM | IC50 [7] 3.14 µM

CN(Cc1ccc(C(C)(C)C)cc1)C(=O)C1CCN(C(=O)Nc2ccccc2)CC1
inactive: IC50 [1] > 67.5 µM | IC50 (HEK293 [2]) > 67.5 µM

CC(=O)c1ccc(Sc2nnnn2-c2ccccc2)c([N+](=O)[O-])c1
active: AC50 [8] 10.8 µM | CC50 [10] > 40 µM | AC50 [11] 49.7 µM | AC50 [12] 7.82 µM | AC50 [14] 33.2 µM | AC50 [15] 9.52 µM | EC50 (Protein RecA) 14.5 µM | AC50 [16] 5.34 µM | IC50 (HEK293 [17]) 2.12 µM | IC50 (cells) 26.2 µM | IC50 (HEK293 [18]) 3.13 µM | EC50 (HEK293 [19]) 14.3 µM | CC50 [20] 14.9 µM
inactive: AC50 [9] > 52 µM | IC50 (HEK293 [13]) > 20 µM

COc1cccc(C(=O)NC(=O)Nc2cc(C)[nH]n2)c1
inactive: IC50 [1] > 67.5 µM | IC50 (HEK293 [2]) > 67.5 µM

Cc1cc(N2CCN(C(=O)c3ccco3)CC2)n2nc(-c3ccc(F)cc3)cc2n1
active: EC50 [3] 2.87 µM | EC50 [5] 10.8 µM
